Test results published in patent US8338450B2, “Compounds as dipeptidyl peptidase IV (DPP IV) inhibitors” (Lupin Limited, priority 2007, dated 2012).
Counter-ions that a name gives are not always drawn. Like-named read-outs stand apart in the source and are kept apart here. One block for each compound: values may come before it.

Key:
human recombinant DPP-IV = target: T1, human recombinant DPP-IV (Homo sapiens, UniProt P27487); test: Inhibition of human recombinant DPP-IV (Gly-Pro-AMC hydrolysis, fluorometric); type: biochemical; conditions: for IC50: human recombinant DPP-IV, 50 μM Gly-Pro-AMC, 30 min at 30° C.; for inhibition at 1 µM: compound 1000 nM, relative to vehicle controls, read-out: % inhibition at 1000 nM
T1 construct: purchased R&D Systems, USA (or produced in-house)
Procedure, shortened: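 Enzyme (10 ng) was preincubated 15 min at 30° C. with compound (10 and 100 nM screen; 8 concentrations 0.1-1000 nM) in Tris-HCl pH 7.4, NaCl, KCl, BSA. 50 μM Gly-Pro-AMC was added for 30 min at 30° C. and AMC fluorescence was read (ex 360/em 460 nm). Results are given as % inhibition versus vehicle or as IC50.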

plasma DPP-IV = target: T2, plasma DPP-IV (Rattus norvegicus, UniProt P14740); test: Measurement of plasma DPP-IV activity in male Wistar rats after single oral dose; type: in vivo; conditions: 10 mg/kg, p.o.; for inhibition at 10 mg/kg: rat, po
T2 construct: from tissue; host or cells: EDTA-plasma of male Wistar rats dosed orally
Method: Overnight-fasted male animals were administered either vehicle or single oral doses of compounds. Blood samples were withdrawn from retro-bulbar venous plexus under anesthesia at several time points up to 24 h post-dose. EDTA-plasma was separated and DPP-IV activity was measured using a fluorometric assay. Assays were carried out in 96-well flat-bottom black microwell plates. A typical reaction contained 25 μl plasma, 50 μl of 50 μM substrate (Gly-Pro-AMC) and 25 μl assay buffer (25 mM Tris-HCl, pH 7.4, 140 mM NaCl, 10 mM KCl and 1% BSA) in a total reaction volume of 100 μl. Plasma samples were incubated with the substrate for 30 min at 30° C., following which the fluorescence was measured in a microplate fluorescence redaer (POLARstar Galaxy), with excitation and emission wavelengths set at 360 nm and 460 nm, respectively. Percent inhibition in plasma DPP-IV activity due to compounds was calculated by comparing with plasma from vehicle-treated animals.

T2 sequence (P14740 37-767 limits assumed): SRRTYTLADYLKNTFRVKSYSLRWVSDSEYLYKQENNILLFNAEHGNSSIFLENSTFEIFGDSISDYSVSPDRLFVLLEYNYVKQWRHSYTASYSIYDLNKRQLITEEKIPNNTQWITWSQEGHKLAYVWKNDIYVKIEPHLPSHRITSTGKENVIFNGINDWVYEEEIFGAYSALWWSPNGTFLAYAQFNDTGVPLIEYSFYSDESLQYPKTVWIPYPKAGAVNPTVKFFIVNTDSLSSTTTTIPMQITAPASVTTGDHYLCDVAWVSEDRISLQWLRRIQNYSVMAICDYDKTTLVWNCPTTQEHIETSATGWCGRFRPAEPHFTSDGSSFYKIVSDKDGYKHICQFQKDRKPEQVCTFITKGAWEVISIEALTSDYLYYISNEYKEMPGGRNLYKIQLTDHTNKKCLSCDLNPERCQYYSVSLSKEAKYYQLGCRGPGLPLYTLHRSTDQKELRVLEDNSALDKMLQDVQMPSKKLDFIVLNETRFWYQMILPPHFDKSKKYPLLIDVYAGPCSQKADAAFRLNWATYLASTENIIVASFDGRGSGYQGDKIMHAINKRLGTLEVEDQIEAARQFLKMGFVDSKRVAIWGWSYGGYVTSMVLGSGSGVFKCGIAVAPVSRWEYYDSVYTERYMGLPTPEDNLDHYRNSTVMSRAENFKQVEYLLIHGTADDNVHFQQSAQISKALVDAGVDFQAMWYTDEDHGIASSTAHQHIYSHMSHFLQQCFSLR
T1 sequence (P27487 whole entry): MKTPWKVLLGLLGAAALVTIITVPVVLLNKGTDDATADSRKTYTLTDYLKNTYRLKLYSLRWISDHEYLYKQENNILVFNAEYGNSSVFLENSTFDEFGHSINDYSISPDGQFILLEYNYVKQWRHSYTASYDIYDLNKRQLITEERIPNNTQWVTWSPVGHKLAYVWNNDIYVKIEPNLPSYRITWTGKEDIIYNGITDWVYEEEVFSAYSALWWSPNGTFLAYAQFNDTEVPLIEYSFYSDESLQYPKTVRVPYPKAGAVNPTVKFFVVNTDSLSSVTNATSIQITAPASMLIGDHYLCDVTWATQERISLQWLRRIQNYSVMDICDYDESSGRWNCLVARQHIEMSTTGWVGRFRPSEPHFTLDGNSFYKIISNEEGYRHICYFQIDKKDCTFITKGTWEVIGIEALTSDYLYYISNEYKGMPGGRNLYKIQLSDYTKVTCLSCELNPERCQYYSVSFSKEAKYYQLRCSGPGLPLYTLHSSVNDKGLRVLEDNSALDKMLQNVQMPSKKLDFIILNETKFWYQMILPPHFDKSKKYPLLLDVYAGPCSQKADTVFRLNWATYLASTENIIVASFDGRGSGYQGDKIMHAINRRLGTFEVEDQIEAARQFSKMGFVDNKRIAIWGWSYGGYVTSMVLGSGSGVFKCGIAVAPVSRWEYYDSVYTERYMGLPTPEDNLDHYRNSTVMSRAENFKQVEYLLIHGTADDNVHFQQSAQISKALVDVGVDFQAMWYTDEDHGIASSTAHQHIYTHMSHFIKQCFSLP

SMILES: N#C[C@@H]1CCCN1C(=O)[C@@H](N)C1CC2CCC(C1)N2 (stereo partly drawn) (as salt: salt) [Compound 8, (2S)-1-{(2S)-2-Amino-2-[8-aza-bicyclo[3.2.1]oct-3-yl]-exo-ethanoyl}-pyrrolidin-2-carbonitrile trifluoro acetic acid salt]
melting point: 143 to 145 °C

SMILES: N#C[C@@H]1C[C@@H]2C[C@@H]2N1C(=O)[C@@H](N)[C@@H]1C[C@H]2CC[C@@H](C1)N2C(=O)c1ccncc1.O=C(O)C(F)(F)F [Compound 25, (1S,3S,5S)-2-{(2S)-2-Amino-2-[8-(pyridine-4-carbonyl)-8-aza-bicyclo[3.2.1]oct-3-yl]-exo-ethanoyl}-2-azabicyclo[3.1.0]hexane-3-carbonitrile trifluoroacetic acid salt]
IC50 (human recombinant DPP-IV): 3.61 nM
Plasma DPP-IV Inhibition (%) 4 h (plasma DPP-IV; 4 h post-dose): 68%
Plasma DPP-IV Inhibition (%) 6 h (plasma DPP-IV; 6 h post-dose): 49%
Plasma DPP-IV Inhibition (%) 8 h (plasma DPP-IV; 8 h post-dose): 51%

SMILES: NC(=O)[C@@H]1C[C@@H]2C[C@@H]2N1C(=O)[C@@H](N)C1CC2CCC(C1)N2C(=O)c1ccc2c(c1)OCO2 (stereo partly drawn) (as salt: salt) [Compound 45, (1S,3S,5S)-2-{(2S)-2-Amino-2-[8-(benzo-[1,3]dioxole-5-carbonyl)-8-aza-bicyclo[3.2.1]oct-3-yl]-exo-ethanoyl}-2-azabicyclo[3.1.0]-hexane-3-carboxamide trifluoro acetic acid salt]
melting point: 154 to 156 °C

SMILES: N#C[C@@H]1C[C@@H]2C[C@@H]2N1C(=O)[C@@H](N)C1CC2CCC(C1)N2C(=O)c1ccnc(F)c1 (stereo partly drawn) (as salt: salt) [Compound 28, (1S,3S,5S)-2-{(2S)-2-amino-2-[8-(2-fluoropyridine-4-carbonyl)-8-aza-bicyclo[3.2.1]-oct-3-yl]-exo-ethanoyl}-2-azabicyclo[3.1.0]-hexane-3-carbonitrile trifluoro acetic acid salt]
melting point: 112 to 115 °C

SMILES: COC(=O)[C@@H]1CCCN1C(=O)[C@@H](N)C1CC2CCC(C1)N2C(=O)c1ccc(C(F)(F)F)cc1 (stereo partly drawn) [Compound 10, Methyl (2S)-1-{(2S)-2-amino-2-[8-(4-trifluoromethyl-benzoyl)-8-aza-bicyclo[3.2.1]oct-3-yl]-exo-ethanoyl}-pyrrolidin-2-carboxylate trifluoro acetic acid]
inhibition at 1 µM (human recombinant DPP-IV): 41%
melting point: 173 to 175 °C

SMILES: N[C@H](C(=O)N1CC(F)C1)C1CC2CCC(C1)N2C(=O)c1ccncc1F (stereo partly drawn) (as salt: trifluoroacetic acid salt) [Compound 62, {(2S)-2-Amino-2-[8-(3-fluoropyridine-4-carbonyl)-8-aza-bicyclo[3.2.1]-oct-3-yl]-exo-ethanoyl}-3-fluoroazetidine trifluoroacetic acid salt]
melting point: 90 to 93 °C

SMILES: N[C@H](C(=O)N1[C@H](C(=O)O)C[C@@H]2C[C@@H]21)C1CC2CCC(C1)N2C(=O)c1ccc2c(c1)OCO2 (stereo partly drawn) (as salt: hydrochloride) [Compound 46, (1S,3S,5S)-2-{(2S)-2-Amino-2-[8-(benzo[1,3]-dioxole-5-carbonyl)-8-aza-bicyclo[3.2.1]-oct-3-yl]-exo-ethanoyl}-2-azabicyclo[3.1.0]hexane-3-carboxylic acid hydrochloride]
melting point: 280 °C (dec.)

SMILES: N[C@H](C(=O)N1CCSC1)C1CC2CCC(C1)N2C(=O)c1ccc(C(F)(F)F)cc1 (stereo partly drawn) (as salt: trifluoroacetic acid salt) [Compound 21, 3-{(2S)-2-Amino-2-[8-(4-trifluoromethyl-benzoyl)-8-aza-bicyclo[3.2.1]-oct-3-yl]-exo-ethanoyl}-1,3-thiazolidin trifluoroacetic acid salt]
melting point: 123 to 125 °C

SMILES: C#C[C@H]1CC[C@@H](C#N)N1C(=O)[C@@H](N)C1CC2CCC(C1)N2C(=O)c1ccnc(F)c1 (stereo partly drawn) (as salt: salt) [Compound 66, (2S,5R)-1-{(2S)-2-Amino-2-[8-(2-fluoropyridin-4-carbonyl)-8-aza-bicyclo[3.2.1]-oct-3-yl]-exo-ethanoyl}-5-ethynyl-pyrrolidin-2-carbonitrile trifluoro acetic acid salt]
melting point: 199 to 200 °C

SMILES: N[C@H](C(=O)N1CCC[C@H]1C(=O)O)C1CC2CCC(C1)N2C(=O)c1ccc(C(F)(F)F)cc1 (stereo partly drawn) (as salt: trifluoroacetic acid salt) [Compound 11, (2S)-1-{(2S)-2-amino-2-[8-(4-trifluoromethyl-benzoyl)-8-aza-bicyclo[3.2.1]-oct-3-yl]-exo-ethanoyl}-pyrrolidin-2-carboxylic acid trifluoroacetic acid salt]
melting point: 161 to 163 °C

SMILES: N#C[C@H]1CSCN1C(=O)[C@@H](N)C1CC2CCC(C1)N2C(=O)c1ccc(C(F)(F)F)cc1 (stereo partly drawn) (as salt: salt) [Compound 20, (4S)-3-{(2S)-2-Amino-2-[8-(4-trifluoromethyl-benzoyl)-8-aza-bicyclo[3.2.1]oct-3-yl]-exo-ethanoyl}-thiazolidin-4-carbonitrile trifluoroacetetic acid salt]
melting point: 159 to 161 °C

SMILES: N#C[C@@H]1CCCN1C(=O)[C@@H](N)C1CC2CCC(C1)N2C(=O)c1ccc(C(F)(F)F)cc1.O=C(O)C(F)(F)F (stereo partly drawn) [Compound 2, (2S)-1-{(2S)-2-Amino-2-[8-(4-trifluoromethylbenzoyl)-8-aza-bicyclo[3.2.1]oct-3-yl]-exo-ethanoyl}-pyrrolidin-2-carbonitrile trifluoroacetic acid salt]
IC50 (human recombinant DPP-IV): 1.3 nM
Plasma DPP-IV Inhibition (%) 4 h (plasma DPP-IV; 4 h post-dose): 82%
Plasma DPP-IV Inhibition (%) 6 h (plasma DPP-IV; 6 h post-dose): 52%
Plasma DPP-IV Inhibition (%) 8 h (plasma DPP-IV; 8 h post-dose): 45%

SMILES: Cl.N[C@H](C(=O)N1CCC[C@H]1c1nn[nH]n1)C1CC2CCC(C1)N2C(=O)c1ccc(C(F)(F)F)cc1 (stereo partly drawn) [Compound 13, (2S)-1-{(2S)-2-Amino-2-[8-(4-trifluoromethyl-benzoyl)-8-aza-bicyclo[3.2.1]oct-3-yl]-exo-ethanoyl}-2-(2H-tetrazol-5-yl)pyrrolidine hydrochloride]
inhibition at 1 µM (human recombinant DPP-IV): 21%
melting point: 244 to 246 °C

IC50 (human recombinant DPP-IV): 1.72 nM
melting point: 168 to 170 °C
SMILES: Cl.N#C[C@@H]1C[C@H](F)CN1C(=O)[C@@H](N)C1CC2CCC(C1)N2C(=O)c1ccc(C(F)(F)F)cc1 (stereo partly drawn) [Compound 15, (2S,4S)-1-{(2S)-2-Amino-2-[8-(4-trifluoromethyl-benzoyl)-8-aza-bicyclo[3.2.1]oct-3-yl]-exo-ethanoyl}-4-fluoro-pyrrolidine-2-carbonitrile hydrochloride salt]

melting point: 160 to 163 °C
SMILES: C#C[C@H]1CC[C@@H](C#N)N1C(=O)[C@@H](N)C1CC2CCC(C1)N2C(=O)c1ccc(C(F)(F)F)cc1 (stereo partly drawn) (as salt: salt) [Compound 63, (2S,5R)-1-{(2S)-2-Amino-2-[8-(4-trifluoromethyl-benzoyl)-8-aza-bicyclo[3.2.1]oct-3-yl]-exo-ethanoyl}-5-ethynyl-pyrrolidin-2-carbonitrile trifluoro acetic acid salt]

SMILES: N#Cc1ccc(C(=O)N2C3CCC2CC([C@H](N)C(=O)N2CCC[C@H]2C#N)C3)cc1 (stereo partly drawn) [Compound 5, (2S)-1-{(2S)-2-Amino-2-[8-(4-cyano-benzoyl)-8-aza-bicyclo[3.2.1]oct-3-yl]-exo-ethanoyl}-pyrrolidin-2-carbonitrile trifluoroacetic acid salt]
IC50 (human recombinant DPP-IV): 1.52 nM

SMILES: N#C[C@@H]1CCCN1C(=O)[C@@H](N)C1CC2CCC(C1)N2C(=O)c1cc(F)c(F)cc1F (stereo partly drawn) [Compound 1, (2S)-1-{(2S)-2-Amino-2-[8-(2,4,5-trifluorobenzoyl)-8-aza-bicyclo[3.2.1]oct-3-yl]-exo-ethanoyl}-pyrrolidin-2-carbonitrile trifluoroacetic acid salt]
IC50 (human recombinant DPP-IV): 2.2 nM
inhibition at 10 mg/kg (plasma DPP-IV; 4 h post-dose, read-out: Plasma DPP-IV Inhibition (%) 4 h): 85%
inhibition at 10 mg/kg (plasma DPP-IV; 6 h post-dose, read-out: Plasma DPP-IV Inhibition (%) 6 h): 56%
inhibition at 10 mg/kg (plasma DPP-IV; 8 h post-dose, read-out: Plasma DPP-IV Inhibition (%) 8 h): 44%
